Test results taken from patent publication US20230146233A1, “A CLASS OF POLYCYCLIC COMPOUNDS INHIBITING RNA HELICASE DHX33 AND THE APPLICATION THEREOF” (Shenzhen KeYe Life Technologies, Co., Ltd, priority 2020, published 2023).

How the values were obtained:
U251-MG cells = experiment: Half-maximal cell-inhibitory concentration on U251-MG cells (CCK-8); format: cell-based; details: Homo sapiens, U-251, U251-MG cells (DHX33-overexpressing cancer cell strain), 48 hours, read-out: IC50 (half-maximal inhibitory concentrations of compounds on U251-MG cells)
Summary of the method: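 […]-overexpressing glioma cells seeded at 1×10^4 cells/well, exposed to compound from 5 nM to 20 μM for 48 hours at 37° C, 5% CO2. Viability read by CCK-8 after 2 hours (OD 450 nm); IC50 from inhibition curves, three repeats.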

DHX33 protein = molecular target: T1, DHX33 protein (Mus musculus, UniProt Q80VY9); experiment: Inhibition of the helicase activity of DHX33 protein in vitro; format: biochemical; details: recombinant DHX33 protein, compound 1-1000 nM, 37° C., 60 minutes; read-out: IC50 (inhibitory effects of the compounds on the helicase activity of DHX33 protein)
T1 construct: purified full-length DHX33 protein; made in house; host or cells: E. coli BL-21pLysS (DE3)
T1 sequence (Q80VY9 1-698): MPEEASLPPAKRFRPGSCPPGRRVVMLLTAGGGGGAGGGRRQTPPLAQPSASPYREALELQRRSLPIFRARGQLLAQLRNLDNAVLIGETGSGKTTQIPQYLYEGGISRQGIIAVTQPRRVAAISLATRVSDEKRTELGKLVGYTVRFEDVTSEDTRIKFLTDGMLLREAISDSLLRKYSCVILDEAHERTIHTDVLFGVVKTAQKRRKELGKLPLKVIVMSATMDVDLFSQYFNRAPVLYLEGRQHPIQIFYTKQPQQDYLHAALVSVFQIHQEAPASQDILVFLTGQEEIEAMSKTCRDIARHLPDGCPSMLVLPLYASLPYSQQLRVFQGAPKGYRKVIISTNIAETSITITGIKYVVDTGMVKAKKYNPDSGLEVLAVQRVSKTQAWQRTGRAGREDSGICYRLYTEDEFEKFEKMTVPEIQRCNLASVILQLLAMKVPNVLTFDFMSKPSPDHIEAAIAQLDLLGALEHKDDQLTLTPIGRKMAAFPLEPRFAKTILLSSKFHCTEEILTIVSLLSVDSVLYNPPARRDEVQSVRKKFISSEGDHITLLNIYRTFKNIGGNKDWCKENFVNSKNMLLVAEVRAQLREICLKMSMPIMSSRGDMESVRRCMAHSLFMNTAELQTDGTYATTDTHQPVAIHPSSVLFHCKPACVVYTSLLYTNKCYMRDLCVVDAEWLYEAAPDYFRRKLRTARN
Protocol: Biochemistry. 2019:58 (4):250-8. RNA helicase gene (mouse DHX33 gene) was cloned into a pET32M-3C vector (between BamH I/Not I restriction sites). Afterward, the plasmid was transformed into BL-21pLysS (DE3) E. coli. 0.5 mM isopropyl 1-thio-βp-D-galactopyranoside (IPTG) was added, and the expression of the recombinant protein was induced at 16° C. for 16 hours. Cells were allowed to precipitate and were resuspended in a cell lysis buffer [50 mM Tris-HCl (pH7.2), 150 mM NaCl, 1% Triton X-100, and 50 mM imidazole supplemented with a protease inhibitor]. Thereafter, cells were subjected to ultrasonic treatment and centrifuged at a rotation speed of 13000 rpm for 25 minutes. The supernatant was incubated with the nickel-nitrilotriacetic acid beads equilibrated in Tris buffer, followed by sufficient washing. Thereafter, the purified protein was eluted with a solution of 300 mM imidazole in Tris buffer, and was then subjected to dialysis against an imidazole-free Tris buffer at 4° C. overnight.
The components involved in the reaction for testing the helicase activity were added to a 96-well opaque white plate. The method was outlined as follows. The 96-well plate was coated with neutravidin at a final concentration of 10 μg/mL (100 μl/well) overnight at 4° C. Afterwards, the neutravidin-coated plate was blocked with 100 μL of 0.1% (w/v) BSA (dissolved in normal PBS) at 22° C. for 2 hours. After washing, a DNA duplex (2.5 ng) that was resulted from the annealing of two single-stranded DNA oligonucleotides (the sequence of one single strand was biotin-labeled 5′-[…]-3′; and the sequence of the other single strand was DIG-labeled 5′-[…]-3′) [the annealing reaction was carried out in PBS (pH 7.0) containing 1M NaCl] was added, and the resulting mixture was incubated at 22° C. for 4 hours. After the addition of 90 μL of the reaction mixture, the helicase reaction was initiated [0.25 pig of purified full-length DHX33 protein, dissolved in 25 mM 4-MOPS (pH 7.0), 5 mM ATP 2 mM DTT, 3 mM MnCl2 and 100 μg/mL BSA]. The reaction was conducted at 37° C. for 60 minutes. After being washed, each well was incubated with a blocking solution [10% (w/v) BSA in 0.1 M maleic acid and 0.15 M NaCl (pH 7.5)] for 30 minutes, and was then incubated with 20 μL of antibody solution (anti-DIG-AP, Roche, in blocking buffer) for 30 minutes. After being washed with 100 μL of detection buffer [0.1 M Tris-HCl and 0.1 M NaCl (pH 9.5)], each well was added with 1 μL of chemiluminescent substrate (CSPD-0.25 mM), and the plate was incubated at 17° C. for 5 minutes. Afterwards, the plate was patted dry and incubated at 37° C. for 30 minutes. The remaining DIG-AP marker control in each well was counted for 10 minutes by a luminescence multi-well plate reader (Enspire, PerkinElmer). Higher reading indicated weaker helicase activity.
Positive control and negative controls were set for this acticity assay. Among them, one negative control group, which differed from the experimental group only in that the former was not added with ATP (other conditions were the same as the experimental group), was used for the comparison with the experimental group; another negative control group, which differed from the experimental group only in that the former was not added with DHX33 protein (other conditions were the same as the experimental group), was used for the comparison with the experimental group. The positive control group was set for the comparison with the wild-type DHX33 protein (standard substance).
Biochemistry. 2019:58 (4):250-8.
Compounds having a series of concentration (the concentrations were set at 1 nM, 5 nM, 10 nM, 20 nM, 50 nM, 100 nM, 250 nM, 500 nM, and 1000 nM) were used to conduct the helicase activity assay of […] protein in vitro. The half-maximal inhibitory concentrations of the compounds of the present disclosure on the helicase activity of […] protein were as shown in Table 1.

COc1cc2nc(/C(C#N)=C/c3cc(C)n(-c4sc(-c5ccccn5)cc4C#N)c3C)[nH]c2cn1 [AB24336, (E)-2-(3-(2-cyano-2-(6-methoxy-3H-imidazo[4,5-c]pyridin-2-yl)vinyl)-2,5-dimethyl-1H-pyrrol-1-yl)-5-(pyridin-2-yl)thiophene-3-carbonitrile]
IC50 (U251-MG cells): 1000 to 5000 nM | IC50 (DHX33 protein): 100 to 400 nM

COc1cc2nc(/C(C#N)=C/c3cc(C)n(-c4sc(C)nc4C(N)=O)c3C)[nH]c2cn1 [AB24351, (E)-5-(3-(2-cyano-2-(6-methoxy-3H-imidazo[4,5-c]pyridin-2-yl)vinyl)-2,5-dimethyl-1H-pyrrol-1-yl)-2-methylthiazole-4-carboxamide]
IC50 (U251-MG cells): 100 to 1000 nM | IC50 (DHX33 protein): 20 to 100 nM

COc1ccn2c(c1)nc1cc(-c3cc(C)n(-c4sc(C)cc4C#N)c3C)ccc12 [AB24379, 2-(3-(3-methoxybenzo[4,5]imidazo[1,2-a]pyridin-7-yl)-2,5-dimethyl-1H-pyrrol-1-yl)-5-methylthiophene-3-carbonitrile]
IC50 (U251-MG cells): 1000 to 5000 nM | IC50 (DHX33 protein): 20 to 100 nM

COc1ccc2nc(NC(=O)c3cc(C)n(-c4sc(C)cc4C#N)c3C)[nH]c2c1 [AB24386, 1-(3-cyano-5-methylthiophen-2-yl)-N-(6-methoxy-1H-benzo[d]imidazol-2-yl)-2,5-dimethyl-1H-pyrrole-3-carboxamide]
IC50 (U251-MG cells): < 100 nM | IC50 (DHX33 protein): < 20 nM

COc1ccc2nc(NC(=O)c3cc(C)n(-c4sc(C)cc4C(N)=O)c3C)[nH]c2c1 [AB24387, 1-(3-carbamoyl-5-methylthiophen-2-yl)-N-(6-methoxy-1H-benzo[d]imidazol-2-yl)-2,5-dimethyl-1H-pyrrole-3-carboxamide]
IC50 (U251-MG cells): 100 to 1000 nM | IC50 (DHX33 protein): 20 to 100 nM

COc1cc2nc(/C(C#N)=C/c3cc(C)n(Cc4cccs4)c3C)[nH]c2cn1 [AB24399, (E)-3-(2,5-dimethyl-1-(thiophen-2-ylmethyl)-1H-pyrrol-3-yl)-2-(6-methoxy-3H-imidazo[4,5-c]pyridin-2-yl)acrylonitrile]
IC50 (U251-MG cells): < 100 nM | IC50 (DHX33 protein): < 20 nM

COc1ccc2cc(NC(=O)c3cc(C)n(-c4sc(C)nc4C#N)c3C)[nH]c2c1 [AB29501]
IC50 (U251-MG cells): < 100 nM | IC50 (DHX33 protein): < 20 nM

COc1cc2nc(/C(C#N)=C/c3cc(C)n([C@@H](C)c4ccccc4)c3C)[nH]c2cn1 [AB29506, (S,E)-3-(2,5-dimethyl-1-(1-phenylethyl)-1H-pyrrol-3-yl)-2-(6-methoxy-3H-imidazo[4,5-c]pyridin-2-yl)acrylonitrile]
IC50 (U251-MG cells): < 100 nM | IC50 (DHX33 protein): < 20 nM

COc1cc2nc(/C(C#N)=C/c3cnc(-c4ccccc4)n3C)[nH]c2cn1 [AB29511, (E)-2-(6-methoxy-3H-imidazo[4,5-c]pyridin-2-yl)-3-(1-methyl-2-phenyl-1H-imidazol-5-yl)acrylonitrile]
IC50 (U251-MG cells): 5000 to 20000 nM | IC50 (DHX33 protein): 400 to 1000 nM

Cc1oc(-n2c(C)cc(/C=C(\C#N)c3nc4ccccc4[nH]3)c2C)c(C#N)c1C [Compound as control, reference compound]
IC50 (U251-MG cells): 5000 to 20000 nM | IC50 (DHX33 protein): 400 to 1000 nM
